Data published in patent publication US20240124454A1, “TRICYCLIC COMPOUND AND USE THEREOF” (NANJING ZAIMING PHARMACEUTICAL CO., LTD., priority 2020, published 2024).
Read-outs that look alike come from different tables or passages of the source.

How the values were obtained:
MAT2A = MAT2A (Homo sapiens (Human), UniProt P31153); test: MAT2A biochemical test (inorganic phosphate colorimetric, PiColorLock); conditions: read-out: MAT2A inhibitory Activity IC50
From the text: Test Example 1. Biochemical Test
The brief introduction of the test principle: L-methionine and ATP can be converted into SAM, inorganic phosphate, and inorganic diphosphate under the catalysis of MAT2A enzymes. The content of inorganic phosphate in the sample can be quantitatively determined by adding a developer such as ammonium molybdate or the like to the enzymatic reaction mixture, thereby reflecting the enzymatic activity of MAT2A.
(§1) Reference: The experiment referred to the method disclosed in patent WO2018045071.
Material: MAT2A screening kits were purchased from BPS bioscience (U.S.); 384-well plates were purchased from Corning Company (U.S.). • 1. MAT2A protein (Pharmaron Beijing Co., Ltd.); • 2. L-methionine (Sigma #M9625-5G) • 3. ATP (Sigma #A7699-1G) • 4. KCl (Sigma #60142-500ML-F) • 5. Tris (Sigma #T2663-1L) • 6. MgCl2 (Sigma #M1028) • 7. EDTA (Invitrogen #AM9260G) • 8. BSA (Sangon Biotech #A500023-0100) • 9. PiColorLock (abcam #ab270004)
Detection method: In the experimental group, the test compound was dissolved in DMSO, diluted to a final concentration of 10 μM using Echo, and diluted 3-fold. 80 nL of the dilution was transferred to a 384-well plate.
The experimental buffer (50 mM Tris, 50 mM KCl, 15 mM MgCl2, 100 μM EDTA, 0.005% BSA) was prepared. The MAT2A protein was diluted with the experimental buffer (at final concentration of […]). 40 μL of 2×MAT2A solution was added to the 384-well plate. The plate was centrifuged at 1000 rpm for 1 min and incubated at room temperature for 120 min.
L-methionine and ATP (the final concentration of L-methionine was […] and the final concentration of ATP was 400 μM) were diluted with the experimental buffer. 40 μL of 2×L-methionine and ATP solution was added to initiate the reaction. The plate was centrifuged at 1000 rpm for 1 min and incubated at room temperature for 90 min.
The PiColorLock™ reaction catalyst was mixed with the PiColorLock™ buffer at a ratio of 1:100 according to the instructions. 20 μL was added to each well, and the plate was shaken for 30 s. 8 μL stabilizing reagent was added, and the plate was shaken for 30 s. The signal values were measured after 30 min of incubation at room temperature.
(§2) A negative control group and a positive control group were respectively used as Bottom and Top. The negative control group was not added with MAT2A protein, and other operations were consistent with those of the experimental group. The positive control group was not added with the test compound, only added with DMSO in the same volume, and other operations were consistent with those of the experimental group.
(§3) The % Compound inhibition was calculated and fitted to give the IC50 of the compound.
(§4) % Compound inhibition=1-100%×(Signal−Bottom)/(Top−Bottom).
(§5) Signal referred to the signal value of the experimental group, Bottom referred to the average signal value of the negative control group, and Top referred to the average signal value of the positive control group.
Under the condition of this experiment, the inhibitory effect of the test compound on MAT2A can be expressed as the IC50 of the inhibition on the phosphate production level during the enzymatic reaction.

HCT116 WT cells = test: Cell proliferation inhibition test (Cell-Titer Glo), HCT116 WT; format: cell-based, human; conditions: Homo sapiens, HCT-116, 144 h, 6 days, read-out: HCT116 WT Antiproliferative activity IC50
Protocol: (§6) Test Example 3. Cell Proliferation Inhibition Test of Human Colon Cancer HCT116 WT Cells and HCT116 MTAP-1-Cells
(§7) The brief introduction of the test principle: After the test MAT2A inhibitor was incubated with cancer cells for a period of time, the effect of the test compound on cell proliferation was measured using a cell proliferation count method based on the ATP content.
as §1
(§8) Material and cell: HCT116 WT cells and HCT116 MTAP^−/− cells were purchased from KYinno; fetal bovine serum, McCoy's 5a culture medium, and penicillin-streptomycin were purchased from Gibco Company (U.S.), 96-well plates were purchased from Corning Company (U.S.), and the Cell-Titer Glo reagent was purchased from Promega Company (U.S.).
(§9) Cell culture: HCT116 WT cells and HCT116 MTAP^−/− cells were cultured with a McCoy's 5a medium containing 10% fetal bovine serum+1% penicillin-streptomycin at 37° C. with 5% CO2.
(§10) Cells at logarithmic growth phase were available for the experiment.
(§11) Cell proliferation activity test: The Cell-Titer Glo reagent was used to test the compound for inhibitory activity on proliferation of both HCT116 WT and HCT116 MTAP^−/− cell strains. The cells were adjusted to a concentration of 400 cells per well, seeded on a 96-well plate, and incubated overnight at 37° C. with 5% CO2.
(§12) In the experimental group, the test compound was diluted sequentially with DMSO and a culture medium, and transferred to a cell plate at a final concentration of 10 μM, 3-fold dilution. The cells were continuously cultured at 37° C. with 5% CO2 for 6 days. The Cell-Titer Glo reagent was added and the cell activity was measured.
as §2, with “cells, only added with the culture medium in the same volume,” for “MAT2A protein,”
as §3, §4, §5
(§13) HCT116 MTAP^−/− cells are cells not expressing MTAP protein obtained by site-directed knockout of wild type HCT116 (HCT116 WT) cells by gene knockout. Synthetic lethality will occur due to MAT2A inhibition and the deletion of MTAP, thereby causing tumor cell death. The activity and selectivity of the MAT2A inhibitor can be evaluated by testing the antiproliferative activity of the MAT2A inhibitor on human colon cancer HCT116 MTAP^−/− cells and human colon cancer HCT116 WT.

HCT116 MTAP^−/− cells = test: Cell proliferation inhibition test (Cell-Titer Glo), HCT116 MTAP−/−; format: cell-based, human; conditions: Homo sapiens, HCT-116, 144 h, 6 days, read-out: HCT116 MTAP−/− Antiproliferative activity IC50
Protocol: as §6, §7, §1, §8, §9, §10, §11, §12
as §2, with “cells, only added with the culture medium in the same volume,” for “MAT2A protein,”
as §3, §4, §5, §13

Sequence of MAT2A (P31153 whole entry): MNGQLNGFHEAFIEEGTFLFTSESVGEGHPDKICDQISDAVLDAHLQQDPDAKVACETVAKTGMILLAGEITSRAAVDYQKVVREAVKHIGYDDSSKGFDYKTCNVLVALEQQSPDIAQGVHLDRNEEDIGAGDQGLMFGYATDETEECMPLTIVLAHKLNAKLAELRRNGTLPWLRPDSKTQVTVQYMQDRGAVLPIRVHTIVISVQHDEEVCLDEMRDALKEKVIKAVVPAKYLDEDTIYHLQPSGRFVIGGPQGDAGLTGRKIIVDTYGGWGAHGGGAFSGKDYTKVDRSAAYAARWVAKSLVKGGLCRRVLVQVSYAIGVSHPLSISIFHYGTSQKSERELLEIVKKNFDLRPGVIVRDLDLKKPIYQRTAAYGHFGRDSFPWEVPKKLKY

SMILES | IC50 (MAT2A; class symbols) [nM] | IC50 (MAT2A; numeric values) [nM] | IC50 (HCT116 WT cells) [nM] | IC50 (HCT116 MTAP^−/− cells) [nM]
Cn1cnc2c(=O)n(-c3cccc(F)c3Cl)c3nc(C(F)(F)F)ncc3c21 [Compound 65, 5-(2-chloro-3-fluorophenyl)-1-methyl-7-(trifluoromethyl)-1,5-dihydro-4H-imidazo[4′,5′:4,5]pyrido[2,3-d]pyrimidin-4-one] | < 100 | 78.3 | 859 | 188
O=c1c2[nH]ncc2c2ccc(C(F)(F)F)nc2n1-c1ccccc1Cl [Compound 6, 5-(2-chlorophenyl)-7-(trifluoromethyl)-3,5-dihydro-4H-pyrazolo[3,4-c][1,8]naphthyridin-4-one] | < 100 | 50.1 | 1110 | 288
Cn1cnc2c(=O)n(-c3cccnc3C(F)(F)F)c3cc(Cl)ccc3c21 (atropisomer, axis not shown) [Compound 47, 7-chloro-1-methyl-5-(2-(trifluoromethyl)pyridin-3-yl)-1,5-dihydro-4H-imidazo[4,5-c]quinolin-4-one] | < 100 | 50.2 | > 10000 | 232
O=c1c2ncoc2c2ccc(C(F)(F)F)nc2n1-c1cccc(F)c1Cl [Compound 35, 5-(2-chloro-3-fluorophenyl)-7-(trifluoromethyl)oxazolo[4,5-c][1,8]naphthyridin-4(5H)-one] | < 100 | 49 | 1210 | 238
Cc1ncccc1-n1c(=O)c2ncn(C)c2c2ccc(Cl)cc21 (atropisomer, axis not shown) [Compound 46, 7-chloro-1-methyl-5-(2-methylpyridin-3-yl)-1,5-dihydro-4H-imidazo[4,5-c]quinolin-4-one] | < 100 | 48.5 | 473 | 87
Cn1cnc2c(=O)n(-c3ccc(OC(F)F)c(F)c3)c3nc(C(F)(F)F)ccc3c21 [Compound 71, 5-[4-(difluoromethoxy)-3-fluorophenyl]-1-methyl-7-(trifluoromethyl)-1,5-dihydro-4H-imidazo[4,5-c][1,8]naphthyridin-4-one] | 500 to 1000 | 978 |  | 
Cn1cnc2c(=O)n(-c3ccc(OC(F)F)cc3)c3nc(C(F)(F)F)ccc3c21 [Compound 15, 5-(4-(difluoromethoxy)phenyl)-1-methyl-7-(trifluoromethyl)-1H-imidazo[4,5-c][1,8]naphthyridin-4(5H)-one] | < 100 | 38.5 |  | 
Cn1cnc2c(=O)n(-c3c(F)cccc3Cl)c3nc(C(F)(F)F)ccc3c21 [Compound 26, 5-(2-chloro-6-fluorophenyl)-1-methyl-7-(trifluoromethyl)-1,5-dihydro-4H-imidazo[4,5-c][1,8]naphthyridin-4-one] | 100 to 500 | 135 |  | 
Cn1nccc1-n1c(=O)c2ncn(C)c2c2ccc(C(F)(F)F)nc21 [Compound 60, 1-methyl-5-(1-methyl-1H-pyrazol-5-yl)-7-(trifluoromethyl)-1,5-dihydro-4H-imidazo[4,5-c][1,8]naphthyridin-4(5H)-one] | 100 to 500 |  |  | 
CCOc1ccc2c3c(ncn3C)c(=O)n(-c3ccc(OC(F)F)cc3)c2n1 [Compound 14, 5-(4-(difluoromethoxy)phenyl)-7-ethoxy-1-methyl-1,5-dihydro-4H-imidazo[4,5-c][1,8]naphthyridin-4-one] | < 100 | 46.4 |  | 
CCOc1ccc2c3cn(C)nc3c(=O)n(-c3ccc(OC(F)F)cc3)c2n1 [Compound 13, 5-(4-(difluoromethoxy)phenyl)-7-ethoxy-2-methyl-2,5-dihydro-4H-pyrazolo[3,4-c][1,8]naphthyridin-4-one] | 100 to 500 | 122 |  | 
Cc1ncncc1-n1c(=O)c2ncn(C)c2c2ccc(C(F)(F)F)nc21 [Compound 79, 1-methyl-5-(4-methylpyrimidin-5-yl)-7-(trifluoromethyl)-1,5-dihydro-4H-imidazo[4,5-c][1,8]naphthyridin-4-one] | 100 to 500 | 102 |  | 
Cn1cnc2c(=O)n(-c3ccc(OC(F)F)cc3Cl)c3nc(C(F)(F)F)ccc3c21 (single isomer, unassigned) [Compound 58-P2, 5-(2-chloro-4-(difluoromethoxy)phenyl)-1-methyl-7-(trifluoromethyl)-1,5-dihydro-4H-imidazo[4,5-c][1,8]naphthyridin-4-one] | < 100 | 90.8 |  | 
Cc1ncccc1-n1c(=O)c2ncn(Cc3cnn(C)c3)c2c2ccc(C(F)(F)F)nc21 [Compound 74, 1-((1-methyl-1H-pyrazol-4-yl)methyl)-5-(2-methylpyridin-3-yl)-7-(trifluoromethyl)-1,5-dihydro-4H-imidazo[4,5-c][1,8]naphthyridin-4-one] | 100 to 500 | 140 |  | 
Cn1cc2c(n1)c(=O)n(-c1ccc(OC(F)F)cc1)c1nc(C(F)(F)F)ccc21 [Compound 12, 5-(4-(difluoromethoxy)phenyl)-2-methyl-7-(trifluoromethyl)-2,5-dihydro-4H-pyrazolo[3,4-c][1,8]naphthyridin-4-one] | 100 to 500 | 102 |  | 
COc1ccccc1-n1c(=O)c2ncn(C)c2c2ccc(C(F)(F)F)nc21 [Compound 33, 5-(2-methoxyphenyl)-1-methyl-7-(trifluoromethyl)-1,5-dihydro-4H-imidazo[4,5-c][1,8]naphthyridin-4-one] | < 100 | 67.6 |  | 
CNCCn1cnc2c(=O)n(-c3ccccc3Cl)c3nc(C(F)(F)F)ccc3c21 [Compound 54, 5-(2-chlorophenyl)-1-(2-(methylamino)ethyl)-7-(trifluoromethyl)-1,5-dihydro-4H-imidazo[4,5-c][1,8]naphthyridin-4-one] | 500 to 1000 | 530 |  | 
Cn1cnc2c(=O)n(-c3cccnc3C(F)(F)F)c3cc(C(F)(F)F)ccc3c21 [Compound 84, 1-methyl-7-(trifluoromethyl)-5-(2-trifluoromethylpyridin-3-yl)-1,5-dihydro-4H-imidazo[4,5-c]quinolin-4-one] | < 100 | 53.4 |  | 
Cn1cnc2c(=O)n(-c3cnccn3)c3nc(C(F)(F)F)ccc3c21 [Compound 77, 1-methyl-5-(pyrazin-2-yl)-7-(trifluoromethyl)-1,5-dihydro-4H-imidazo[4,5-c][1,8]naphthyridin-4-one] | 100 to 500 | 337 |  | 
